This passage reports IC50 results from patent US10160748B2 (AbbVie Inc., priority 2015, dated 2018).

A value given as a limit tells only on which side of the number the result lay.

The target in the experiment is TNFα trimer (Homo sapiens, UniProt P01375). In words: TNFα FP Competitive Binding Assay. The conditions noted are these: FP binding assay; 20 nM TNFα trimer, 1 nM OregonGreen488 probe; read-out: TNF IC50. On the procedure: TNFα FP Competitive Binding Assay
• 1. Assay Buffer: Prepare 1× Assay Buffer (Water with 47 mM HEPES, 47 mM NaCl, 0.9 mM EDTA, 0.0071% Triton X-100) by adding 25 mL of 1 M HEPES, 5 mL of 5 M NaCl, 1 mL of 0.5 M EDTA, and 375 μL of a 10% Triton X-100 stock to a fresh 500 mL bottle of water. • 2. Assay Mixture: Prepare fresh Assay Mixture containing 20 nM TNFα trimer (60 nM protein) and 1 nM 2′,7′-difluoro-3′,6′-dihydroxy-N-(2-(2-(2-((4-(isoquinolin-8-yl)-3-(4-(isoquinolin-8-yl)phenethoxy)benzyl)oxy)ethoxy)ethoxy)ethyl)-3-oxo-3H-spiro[isobenzofuran-1,9′-xanthene]-5-carboxamide probe in 1× Assay Buffer. Compound Plate Preparation Manual 12-Point 1:3 Dilution Plates: (384 Well Polypropylene Plates)
Top concentration of compounds, 10 mM in DMSO, dispensed in rows A-O in columns 1 and 13. Compounds are serially diluted 1:3 with DMSO in columns 2-12 or 14-24 using a 16-channel Matrix pipettor. Plates stored at −20° C.
Discovery Preps 12-Point 1:3 Dilution Plates: (384 Well Assay Plates)
Top concentration, 5 mM in DMSO, of compounds placed in rows A-O in columns 1 and 13. Compounds are serially diluted 1:3 with DMSO in columns 2-12 or 14-24. Compound solutions are dispensed into replicate assay plates at 410 nL per well. Plates stored at 4° C.
TNFα FP Competitive Binding Assay Protocol
• 1. Compound plates warmed to rt. • 2. Fresh Assay Mixture is prepared. • 3. Assay Mixture (20 μL) is dispensed each well of 384 assay plates using a Thermo Multidrop Combi or 16-channel Matrix pipettor. If Manual 12-point 1:3 Dilution Plates are to be tested, Assay Mix is dispensed into empty plates. Discovery Preps 12-point 1:3 Dilution Plates already contain 410 nL compound solution in DMSO. • 4. For Manual 12-point 1:3 Dilution Plates, 0.7 μL is manually transferred using a 16-channel Matrix pipettor to replicate assay plates containing 20 μL Assay Mixture for a final top compound concentration of 338 μM (3.4% DMSO). • 5. For Discovery Preps 12-point 1:3 Dilution Plates, 20 μL Assay Mixture added the 410 nL compound solution already in the plates yields a final top compound concentration of 100 μM (2.0% DMSO). • 6. Background subtraction controls are wells P1-P8 containing only Assay Buffer. The low % inhibition controls are wells P9-P16 containing only Assay Mix. The high % inhibition are wells P17-P24 containing only 1 nM 2′,7′-difluoro-3′,6′-dihydroxy-N-(2-(2-(2-((4-(isoquinolin-8-yl)-3-(4-(isoquinolin-8-yl)phenethoxy)benzyl)oxy)ethoxy)ethoxy)ethyl)-3-oxo-3H-spiro[isobenzofuran-1,9′-xanthene]-5-carboxamide probe in 1× Assay Buffer. • 7. Plates are incubated at rt for 18-24 h in 37° C. incubator (CO2 is off). • 8. Prior to reading the assay, the plates are placed in a dark cabinet to equilibrate at rt for one hour. • 9. Background-subtracted fluorescence polarization (mP) is measured using a PerkinElmer Envision plate reader. • 10. Raw data is entered into Assay Explorer and dose-response curves are generated using a variable slope curve. Supplies, Materials, and Reagents

TNFα trimer, sequence (P01375 77-233 limits assumed): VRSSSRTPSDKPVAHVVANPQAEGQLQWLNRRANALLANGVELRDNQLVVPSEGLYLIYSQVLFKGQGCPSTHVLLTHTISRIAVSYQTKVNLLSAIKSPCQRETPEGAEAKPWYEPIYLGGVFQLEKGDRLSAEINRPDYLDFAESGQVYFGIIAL

A word on the IC50: it is the midpoint of a concentration-inhibition curve. As to `Cn1c(=O)c2ccc(-c3cnc(N4CCN(C(N)=O)CC4)nc3)cc2n1Cc1ccccc1OC(F)F` [Example 2.1], the IC50 is under 1 µM. As for `COC[C@H]1CCCN1c1ncc(-c2ccc3c(=O)n(C)n(Cc4ccccc4OC(F)F)c3c2)cn1` [Example 2.2], the 50% inhibitory concentration (IC50) is under 1 µM. Turning to `CC(=O)N1CCN(c2ncc(-c3ccc4c(=O)n(C)n(Cc5ccccc5OC(F)F)c4c3)cn2)CC1` [Example 2.3], the half-maximal inhibitory concentration (IC50) was under 1 µM. As to `Cn1c(=O)c2ccc(-c3cnc(N4CC5(COC5)C4)nc3)cc2n1Cc1ccccc1OC(F)F` [Example 2.4], the IC50 was 1 to 10 µM. With `Cn1c(=O)c2ccc(-c3cnc(N4CC[C@@H](O)C4)nc3)cc2n1Cc1ccccc1OC(F)F` [Example 2.5] the figure was over 10 µM; with `Cn1c(=O)c2ccc(-c3cnc(N4CC[C@@H](C(=O)O)C4)nc3)cc2n1Cc1ccccc1OC(F)F` [Example 2.6], over 10 µM. On to `Cn1c(=O)c2ccc(-c3cnc(NCC4CNC(=O)C4)nc3)cc2n1Cc1ccccc1OC(F)F` (stereo not shown) [Example 2.7], for which the IC50 lay within 1 to 10 µM.

On to `Cn1c(=O)c2ccc(-c3cnc(N4CC(C5COC5)C4)nc3)cc2n1Cc1ccccc1OC(F)F` [Example 2.8], for which the IC50 lay in the range of 1 to 10 µM. `Cn1c(=O)c2ccc(-c3cnc(N4CC(O)C4)nc3)cc2n1Cc1ccccc1OC(F)F` [Example 2.9]: the 50% inhibitory concentration (IC50) lay within 1 to 10 µM. `Cn1c(=O)c2ccc(-c3cnc(NC4COC4)nc3)cc2n1Cc1ccccc1OC(F)F` [Example 2.10]: the IC50 lay within 1 to 10 µM.

Consider `Cn1c(=O)c2ccc(-c3cnc(N4CC(CO)C4)nc3)cc2n1Cc1ccccc1OC(F)F` [Example 2.11], for which the IC50 fell in the range of 1 to 10 µM.

For the compound `Cn1c(=O)c2ccc(-c3cnc(NCCO)nc3)cc2n1Cc1ccccc1OC(F)F` [Example 2.12], the concentration for half-maximal inhibition (IC50) was 1 to 10 µM.

With `Cn1c(=O)c2ccc(-c3cnc(N4CC(C(=O)O)C4)nc3)cc2n1Cc1ccccc1OC(F)F` [Example 2.13], the IC50 was over 10 µM. For `Cn1c(=O)c2ccc(-c3cnc(N4CC5(CC5C(=O)O)C4)nc3)cc2n1Cc1ccccc1OC(F)F` (stereo not shown) [Example 2.14], the half-inhibitory concentration (IC50) is over 10 µM. Turning to `Cn1c(=O)c2ccc(-c3cnc(N4CC[C@H](C(=O)O)C4)nc3)cc2n1Cc1ccccc1OC(F)F` [Example 2.15], the concentration for half-maximal inhibition (IC50) was over 10 µM. In the case of `CN1CC(CNc2ncc(-c3ccc4c(=O)n(C)n(Cc5ccccc5OC(F)F)c4c3)cn2)CC1=O` (stereo not shown) [Example 2.16], the half-maximal inhibitory concentration (IC50) was in the range of 1 to 10 µM. For `Cn1c(=O)c2ccc(-c3cnc(N4CC5(CC(C(=O)O)C5)C4)nc3)cc2n1Cc1ccccc1OC(F)F` [Example 2.17], the IC50 is 1 to 10 µM. The figure for `Cn1c(=O)c2ccc(-c3cnc(N4CC(CC(=O)O)C4)nc3)cc2n1Cc1ccccc1OC(F)F` [Example 2.18] is over 10 µM; for `Cn1c(=O)c2ccc(-c3cnc(NC4CCCCNC4=O)nc3)cc2n1Cc1ccccc1OC(F)F` (stereo not shown) [Example 2.19] it is 1 to 10 µM; for `Cn1c(=O)c2ccc(-c3cnc(NC4CCOC4)nc3)cc2n1Cc1ccccc1OC(F)F` (stereo not shown) [Example 2.20] it is 1 to 10 µM. With `Cn1c(=O)c2ccc(-c3cnc(NC4CCCOC4)nc3)cc2n1Cc1ccccc1OC(F)F` (stereo not shown) [Example 2.21] the figure was 1 to 10 µM; with `COCCCNc1ncc(-c2ccc3c(=O)n(C)n(Cc4ccccc4OC(F)F)c3c2)cn1` [Example 2.22], 1 to 10 µM. Turning to `Cn1c(=O)c2ccc(-c3cnc(N4CCN5C(=O)CCC5C4)nc3)cc2n1Cc1ccccc1OC(F)F` (stereo not shown) [Example 2.23], the IC50 was under 1 µM. With `Cn1c(=O)c2ccc(-c3cnc(N[C@@H]4CCOC4)nc3)cc2n1Cc1ccccc1OC(F)F` [Example 2.24] the figure was 1 to 10 µM; with `Cn1c(=O)c2ccc(-c3cnc(N4CCN5C(=O)OC[C@H]5C4)nc3)cc2n1Cc1ccccc1OC(F)F` [Example 2.25], under 1 µM. The figure for `Cn1c(=O)c2ccc(-c3cnc(N4CCN5C(=O)OC[C@@H]5C4)nc3)cc2n1Cc1ccccc1OC(F)F` [Example 2.26] is under 1 µM. As to `Cn1c(=O)c2ccc(-c3cnc(N4CCN5C(=O)NCC5C4)nc3)cc2n1Cc1ccccc1OC(F)F` (stereo not shown) [Example 2.27, 7-(5-(1-(2-(Difluoromethoxy)benzyl)-2-methyl-3-oxo-2,3-dihydro-1H-indazol-6-yl)pyrimidin-2-yl)hexahydroimidazo[1,5-a]pyrazin-3(2H)-one], the IC50 is under 1 µM. Turning to `Cn1c(=O)c2ccc(-c3cnc(N4CCC(c5nsc(=O)[nH]5)CC4)nc3)cc2n1Cc1ccccc1OC(F)F` [Example 2.28], the 50% inhibitory concentration (IC50) lay in the range of 1 to 10 µM. On to `CC(=O)N1CC[C@H](Nc2ncc(-c3ccc4c(=O)n(C)n(Cc5ccccc5OC(F)F)c4c3)cn2)C1` [Example 3, (S)-6-(2-((1-Acetylpyrrolidin-3-yl)amino)pyrimidin-5-yl)-1-(2-(difluoromethoxy)benzyl)-2-methyl-1H-indazol-3(2H)-one], for which the IC50 is 1 to 10 µM. Regarding `Cn1c(=O)c2ccc(-c3cc(N4CCOCC4)ncc3Cl)cc2n1Cc1cccc(F)c1` [Example 3.1], the IC50 is over 10 µM. As for `Cn1c(=O)c2ccc(-c3cnc(CN4CC(C(=O)O)C4)nc3)cc2n1Cc1ccccc1OC(F)F` [Example 4, 1-((5-(1-(2-(Difluoromethoxy)benzyl)-2-methyl-3-oxo-2,3-dihydro-1H-indazol-6-yl)pyrimidin-2-yl)methyl)azetidine-3-carboxylic acid], the IC50 was over 10 µM. With `Cn1c(=O)c2ccc(-c3cc(N4CCOCC4)ncc3Cl)cc2n1Cc1ccccc1OC(F)F` [Example 4.1] the figure was over 10 µM; with `Cn1c(=O)c2ccc(-c3cnc(N4CCOCC4)nc3)cc2n1Cc1ccccc1OC(F)F` [Example 5, 1-(2-(Difluoromethoxy)benzyl)-2-methyl-6-(2-morpholinopyrimidin-5-yl)-1H-indazol-3(2H)-one], under 1 µM; with `Cn1c(=O)c2ccc(-c3cnc(N4CCNC(=O)C4)nc3)cc2n1Cc1ccccc1OC(F)F` [Example 5.1], 1 to 10 µM. On to `Cn1c(=O)c2ccc(-c3ccc(N4CCOCC4)nc3)cc2n1Cc1ccccc1OC(F)F` [Example 5.2], for which the IC50 is 1 to 10 µM. On to `Cn1c(=O)c2ccc(-c3ccc(N4CCNC(=O)C4)nc3)cc2n1Cc1ccccc1OC(F)F` [Example 5.3], for which the IC50 was 1 to 10 µM. For the compound `COc1ncc(-c2ccc3c(=O)n(C)n(Cc4ccccc4OC(F)F)c3c2)cn1` [Example 5.4], the half-maximal inhibitory concentration (IC50) was in the range of 1 to 10 µM. Turning to `Cn1c(=O)c2ccc(-c3cnc(N4CCC(C(=O)O)CC4)nc3)cc2n1Cc1ccccc1OC(F)F` [Example 5.5], the IC50 lay in the range of 1 to 10 µM. Turning to `Cn1c(=O)c2ccc(-c3ccnc(N4CCOCC4)c3)cc2n1Cc1ccccc1OC(F)F` [Example 5.6], the IC50 was over 10 µM.

On to `Cn1c(=O)c2ccc(-c3cnn(C4CCOCC4)c3)cc2n1Cc1ccccc1OC(F)F` [Example 5.7], for which the IC50 was over 10 µM. As to `O=c1[nH]n(Cc2ccccc2OC(F)F)c2cc(-c3cnc(N4CCOCC4)nc3)ccc12` [Example 6.1, 1-(2-(difluoromethoxy)benzyl)-6-(2-morpholinopyrimidin-5-yl)-1H-indazol-3(2H)-one], the IC50 is over 10 µM. `Cn1c(=O)c2ccc(-c3cnc(N4CCOCC4)nc3)cc2n1Cc1cc(Cl)ccc1Cl` [Example 7.1]: the IC50 was under 1 µM.

For the compound `Cn1c(=O)c2ccc(-c3cnc(N4CCC(C(=O)O)CC4)nc3)cc2n1Cc1cc(Cl)ccc1Cl` [Example 7.2], the concentration for half-maximal inhibition (IC50) was 1 to 10 µM.

Take `Cn1c(=O)c2ccc(-c3cnc(N4CCOCC4)nc3)cc2n1Cc1c(Cl)cccc1Cl` [Example 8.1]: the 50% inhibitory concentration (IC50) is 1 to 10 µM. Turning to `Cn1c(=O)c2ccc(-c3cnc(N4CCNC(=O)C4)nc3)cc2n1Cc1c(Cl)cccc1Cl` [Example 8.2], the IC50 was 1 to 10 µM. Consider `Cn1c(=O)c2ccc(-c3cnc(N4CCOCC4)nc3)cc2n1Cc1cc(CO)ccc1OC(F)F` [Example 9, 1-(2-(Difluoromethoxy)-5-(hydroxymethyl)benzyl)-2-methyl-6-(2-morpholinopyrimidin-5-yl)-1H-indazol-3(2H)-one], for which the IC50 was under 1 µM.
